Measurements from patent publication US20250382305A1 (PTC THERAPEUTICS, INC., priority 2022, published 2025).

Experiments:
[1] = system: ATXN3 pre-mRNA; assay: RT-qPCR Assay to Quantify Exon 4 Skipping in ATXN3 pre-mRNA in Cells; type: cell-based; details: percent exon 4 skipping in ATXN3 pre-mRNA, RT-qPCR of cell lysates; average IC50
Procedure, shortened: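 IC50 derives from a dose-response fit of percent exon 4 skipping, quantified by RT-qPCR on crude lysates. Compounds tested as 7-point 3.16-fold dilutions in duplicate; cells (10,000/well) were exposed for 24 h at 37 °C before lysis.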

[2] = system: Total ATXN3 (tATXN3) protein; assay: Endogenous Total ATXN3 (tATXN3) Protein Assay (MSD immunoassay of cell lysates); type: cell-based; details: average IC50, total ATXN3 protein in cell lysate after 48 h with compound (Table 1)
Procedure, shortened: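 By electrochemiluminescent MSD sandwich immunoassay (mouse monoclonal capture, rabbit monoclonal and SULFO-TAG anti-rabbit detection), endogenous ATXN3 was quantified in lysates of cells treated 48 h at 37° C at 10,000 cells/well. Treatment used a 7-point 3.16-fold duplicate dilution series, with average IC50 grouped into star categories.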

| Structure (SMILES) | IC50 [1] [nM] | IC50 [2] [nM] |
| --- | --- | --- |
| N[C@@H]1CCCCC1c1sc2c(NCc3cccs3)cc(Cl)nc2c1C(F)F.N[C@H]1CCCCC1c1sc2c(NCc3cccs3)cc(Cl)nc2c1C(F)F (mixture of isomers) [Compound 279, 2-((2R)-2-aminocyclohexyl)-5-chloro-3-(difluoromethyl)-N-(thiophen-2-ylmethyl)thieno[3,2-b]pyridin-7-amine and 2-((2S)-2-aminocyclohexyl)-5-chloro-3-(difluoromethyl)-N-(thiophen-2-ylmethyl)thieno[3,2-b]pyridin-7-amine] | 30 to 300 | 30 to 300 |
| N[C@@H]1C[C@@H]2C[C@@H]2C[C@H]1c1sc2c(NCc3cccs3)cc(Cl)nc2c1Br.N[C@H]1C[C@H]2C[C@H]2C[C@@H]1c1sc2c(NCc3cccs3)cc(Cl)nc2c1Br (mixture of isomers) [Compound 290, 2-((1R,3R,4R,6S)-4-aminobicyclo[4.1.0]heptan-3-yl)-3-bromo-5-chloro-N-(thiophen-2-ylmethyl)thieno[3,2-b]pyridin-7-amine and 2-((1S,3S,4S,6R)-4-aminobicyclo[4.1.0]heptan-3-yl)-3-bromo-5-chloro-N-(thiophen-2-ylmethyl)thieno[3,2-b]pyridin-7-amine] | 30 to 300 | 30 to 300 |
| C[C@@H]1C=CC[C@H](c2sc3c(NCc4cccs4)cc(Cl)nc3c2Br)[C@H]1N.C[C@H]1C=CC[C@@H](c2sc3c(NCc4cccs4)cc(Cl)nc3c2Br)[C@@H]1N (mixture of isomers) [Compound 294, 2-((1R,5S,6R)-6-amino-5-methylcyclohex-3-en-1-yl)-3-bromo-5-chloro-N-(thiophen-2-ylmethyl)thieno[3,2-b]pyridin-7-amine and 2-((1S,5R,6S)-6-amino-5-methylcyclohex-3-en-1-yl)-3-bromo-5-chloro-N-(thiophen-2-ylmethyl)thieno[3,2-b]pyridin-7-amine] | 30 to 300 | 30 to 300 |
| C/C=C/CNc1cc(Cl)nc2c(Br)c([C@@H]3CC=CC[C@H]3N)sc12.C/C=C/CNc1cc(Cl)nc2c(Br)c([C@H]3CC=CC[C@@H]3N)sc12 (mixture of isomers) [Compound 300, 2-((1R,6R)-6-aminocyclohex-3-en-1-yl)-3-bromo-N-((E)-but-2-en-1-yl)-5-chlorothieno[3,2-b]pyridin-7-amine and 2-((1S,6S)-6-aminocyclohex-3-en-1-yl)-3-bromo-N-((E)-but-2-en-1-yl)-5-chlorothieno[3,2-b]pyridin-7-amine] | 30 to 300 | 30 to 300 |
| N[C@@H]1COCC[C@H]1c1sc2c(NCc3ccccc3)cc(Cl)nc2c1Br.N[C@H]1COCC[C@@H]1c1sc2c(NCc3ccccc3)cc(Cl)nc2c1Br (mixture of isomers) [Compound 328, 2-((3R,4S)-3-aminotetrahydro-2H-pyran-4-yl)-N-benzyl-3-bromo-5-chlorothieno[3,2-b]pyridin-7-amine and 2-((3S,4R)-3-aminotetrahydro-2H-pyran-4-yl)-N-benzyl-3-bromo-5-chlorothieno[3,2-b]pyridin-7-amine] | 30 to 300 | 30 to 300 |
| C#Cc1c([C@@H]2CCOC[C@H]2N)sc2c(NCc3ccco3)nc(Cl)nc12.C#Cc1c([C@H]2CCOC[C@@H]2N)sc2c(NCc3ccco3)nc(Cl)nc12 (mixture of isomers) [Compound 330, 6-((3R,4S)-3-aminotetrahydro-2H-pyran-4-yl)-2-chloro-7-ethynyl-N-(furan-2-ylmethyl)thieno[3,2-d]pyrimidin-4-amine and 6-((3S,4R)-3-aminotetrahydro-2H-pyran-4-yl)-2-chloro-7-ethynyl-N-(furan-2-ylmethyl)thieno[3,2-d]pyrimidin-4-amine] | 30 to 300 | 30 to 300 |
| Cc1c([C@@H]2CCC[C@H](F)[C@H]2N)sc2c(NCc3cccs3)cc(Cl)nc12.Cc1c([C@H]2CCC[C@@H](F)[C@@H]2N)sc2c(NCc3cccs3)cc(Cl)nc12 (mixture of isomers) [Compound 342, 2-((1R,2S,3S)-2-amino-3-fluorocyclohexyl)-5-chloro-3-methyl-N-(thiophen-2-ylmethyl)thieno[3,2-b]pyridin-7-amine and 2-((1S,2R,3R)-2-amino-3-fluorocyclohexyl)-5-chloro-3-methyl-N-(thiophen-2-ylmethyl)thieno[3,2-b]pyridin-7-amine] | 30 to 300 | 30 to 300 |
| N[C@@H]1CCCO[C@H]1c1c(Cl)c2nc(Cl)nc(NCc3cccs3)c2n1C(F)F.N[C@H]1CCCO[C@@H]1c1c(Cl)c2nc(Cl)nc(NCc3cccs3)c2n1C(F)F (mixture of isomers) [Compound 346, 6-((2S,3S)-3-aminotetrahydro-2H-pyran-2-yl)-2,7-dichloro-5-(difluoromethyl)-N-(thiophen-2-ylmethyl)-5H-pyrrolo[3,2-d]pyrimidin-4-amine and 6-((2R,3R)-3-aminotetrahydro-2H-pyran-2-yl)-2,7-dichloro-5-(difluoromethyl)-N-(thiophen-2-ylmethyl)-5H-pyrrolo[3,2-d]pyrimidin-4-amine] | 30 to 300 | 30 to 300 |
| N[C@@H]1CCCC[C@H]1c1sc2c(NCc3cccs3)cc(Cl)nc2c1C(F)(F)F.N[C@H]1CCCC[C@@H]1c1sc2c(NCc3cccs3)cc(Cl)nc2c1C(F)(F)F (mixture of isomers) [Compound 356, 2-((1S,2S)-2-aminocyclohexyl)-5-chloro-N-(thiophen-2-ylmethyl)-3-(trifluoromethyl)thieno[3,2-b]pyridin-7-amine and 2-((1R,2R)-2-aminocyclohexyl)-5-chloro-N-(thiophen-2-ylmethyl)-3-(trifluoromethyl)thieno[3,2-b]pyridin-7-amine] | 30 to 300 | 30 to 300 |
| Cc1c([C@@H]2CC=CC[C@H]2N)n(C(F)F)c2c(NCc3ccco3)nc(Cl)nc12.Cc1c([C@H]2CC=CC[C@@H]2N)n(C(F)F)c2c(NCc3ccco3)nc(Cl)nc12 (mixture of isomers) [Compound 358, 6-((1R,6R)-6-aminocyclohex-3-en-1-yl)-2-chloro-5-(difluoromethyl)-N-(furan-2-ylmethyl)-7-methyl-5H-pyrrolo[3,2-d]pyrimidin-4-amine and 6-((1S,6S)-6-aminocyclohex-3-en-1-yl)-2-chloro-5-(difluoromethyl)-N-(furan-2-ylmethyl)-7-methyl-5H-pyrrolo[3,2-d]pyrimidin-4-amine] | 30 to 300 | 30 to 300 |
| N[C@@H]1CCCC(F)(F)[C@@H]1c1sc2c(NCc3cccs3)cc(Cl)nc2c1Br.N[C@H]1CCCC(F)(F)[C@H]1c1sc2c(NCc3cccs3)cc(Cl)nc2c1Br (mixture of isomers) [Compound 359, 2-((1R,6R)-6-amino-2,2-difluorocyclohexyl)-3-bromo-5-chloro-N-(thiophen-2-ylmethyl)thieno[3,2-b]pyridin-7-amine and 2-((1S,6S)-6-amino-2,2-difluorocyclohexyl)-3-bromo-5-chloro-N-(thiophen-2-ylmethyl)thieno[3,2-b]pyridin-7-amine] | 30 to 300 | 30 to 300 |
| N[C@@H]1CC=CC[C@H]1c1sc2c(NCc3cccs3)cc(Cl)nc2c1I.N[C@H]1CC=CC[C@@H]1c1sc2c(NCc3cccs3)cc(Cl)nc2c1I (mixture of isomers) [Compound 365, 2-((1R,6R)-6-aminocyclohex-3-en-1-yl)-5-chloro-3-iodo-N-(thiophen-2-ylmethyl)thieno[3,2-b]pyridin-7-amine and 2-((1S,6S)-6-aminocyclohex-3-en-1-yl)-5-chloro-3-iodo-N-(thiophen-2-ylmethyl)thieno[3,2-b]pyridin-7-amine] | 30 to 300 | 30 to 300 |
| N[C@@H]1CC=CC[C@H]1c1sc2c(NCc3cccs3)nc(Cl)nc2c1Cl.N[C@H]1CC=CC[C@@H]1c1sc2c(NCc3cccs3)nc(Cl)nc2c1Cl (mixture of isomers) [Compound 397, 6-((1R,6R)-6-aminocyclohex-3-en-1-yl)-2,7-dichloro-N-(thiophen-2-ylmethyl)thieno[3,2-d]pyrimidin-4-amine and 6-((1S,6S)-6-aminocyclohex-3-en-1-yl)-2,7-dichloro-N-(thiophen-2-ylmethyl)thieno[3,2-d]pyrimidin-4-amine] | 300 to 1000 | 300 to 1000 |
| N[C@@H]1CCCC[C@H]1c1c(Cl)c2nc(Cl)nc(NCc3ccccc3)c2n1C(F)F.N[C@H]1CCCC[C@@H]1c1c(Cl)c2nc(Cl)nc(NCc3ccccc3)c2n1C(F)F (mixture of isomers) [Compound 418, 6-((1S,2S)-2-aminocyclohexyl)-N-benzyl-2,7-dichloro-5-(difluoromethyl)-5H-pyrrolo[3,2-d]pyrimidin-4-amine and 6-((1R,2R)-2-aminocyclohexyl)-N-benzyl-2,7-dichloro-5-(difluoromethyl)-5H-pyrrolo[3,2-d]pyrimidin-4-amine] | 30 to 300 | 30 to 300 |
| N[C@@H]1CC=CC[C@H]1c1sc2c(NCc3cccs3)cc(Cl)nc2c1Cl.N[C@H]1CC=CC[C@@H]1c1sc2c(NCc3cccs3)cc(Cl)nc2c1Cl (mixture of isomers) [Compound 431, 2-((1R,6R)-6-aminocyclohex-3-en-1-yl)-3,5-dichloro-N-(thiophen-2-ylmethyl)thieno[3,2-b]pyridin-7-amine and 2-((1S,6S)-6-aminocyclohex-3-en-1-yl)-3,5-dichloro-N-(thiophen-2-ylmethyl)thieno[3,2-b]pyridin-7-amine] | ≤ 30 | ≤ 30 |
| N[C@H]1CCCN(c2ccccc2)[C@H]1c1sc2c(NCc3cccs3)cc(Cl)nc2c1Br (racemic) [Compound 125, 2-((2R,3S)-3-amino-1-phenylpiperidin-2-yl)-3-bromo-5-chloro-N-(thiophen-2-ylmethyl)thieno[3,2-b]pyridin-7-amine and 2-((2S,3R)-3-amino-1-phenylpiperidin-2-yl)-3-bromo-5-chloro-N-(thiophen-2-ylmethyl)thieno[3,2-b]pyridin-7-amine] | > 1000 | > 1000 |
